In ChEMBL document CHEMBL4190187, “Discovery of pyrazolopyrimidine derivatives as novel inhibitors of ataxia telangiectasia and rad3 related protein (ATR)” (Bioorg Med Chem Lett, 2017):

Assays:
[1] = molecular target: Phosphatidylinositol 4,5-bisphosphate 3-kinase catalytic subunit gamma isoform (Homo sapiens) (UniProt P48736); test: Inhibition of recombinant full-length human p120g at 1 uM using phosphatidylinositol-4,5-bisphosphate as substrate after 40 mins in presence of [gamma-33P]ATP by scintillation counting method
Chain of Phosphatidylinositol 4,5-bisphosphate 3-kinase catalytic subunit gamma isoform (Homo sapiens) (P48736 whole entry, looked up, the tested form may be a part, canonical isoform): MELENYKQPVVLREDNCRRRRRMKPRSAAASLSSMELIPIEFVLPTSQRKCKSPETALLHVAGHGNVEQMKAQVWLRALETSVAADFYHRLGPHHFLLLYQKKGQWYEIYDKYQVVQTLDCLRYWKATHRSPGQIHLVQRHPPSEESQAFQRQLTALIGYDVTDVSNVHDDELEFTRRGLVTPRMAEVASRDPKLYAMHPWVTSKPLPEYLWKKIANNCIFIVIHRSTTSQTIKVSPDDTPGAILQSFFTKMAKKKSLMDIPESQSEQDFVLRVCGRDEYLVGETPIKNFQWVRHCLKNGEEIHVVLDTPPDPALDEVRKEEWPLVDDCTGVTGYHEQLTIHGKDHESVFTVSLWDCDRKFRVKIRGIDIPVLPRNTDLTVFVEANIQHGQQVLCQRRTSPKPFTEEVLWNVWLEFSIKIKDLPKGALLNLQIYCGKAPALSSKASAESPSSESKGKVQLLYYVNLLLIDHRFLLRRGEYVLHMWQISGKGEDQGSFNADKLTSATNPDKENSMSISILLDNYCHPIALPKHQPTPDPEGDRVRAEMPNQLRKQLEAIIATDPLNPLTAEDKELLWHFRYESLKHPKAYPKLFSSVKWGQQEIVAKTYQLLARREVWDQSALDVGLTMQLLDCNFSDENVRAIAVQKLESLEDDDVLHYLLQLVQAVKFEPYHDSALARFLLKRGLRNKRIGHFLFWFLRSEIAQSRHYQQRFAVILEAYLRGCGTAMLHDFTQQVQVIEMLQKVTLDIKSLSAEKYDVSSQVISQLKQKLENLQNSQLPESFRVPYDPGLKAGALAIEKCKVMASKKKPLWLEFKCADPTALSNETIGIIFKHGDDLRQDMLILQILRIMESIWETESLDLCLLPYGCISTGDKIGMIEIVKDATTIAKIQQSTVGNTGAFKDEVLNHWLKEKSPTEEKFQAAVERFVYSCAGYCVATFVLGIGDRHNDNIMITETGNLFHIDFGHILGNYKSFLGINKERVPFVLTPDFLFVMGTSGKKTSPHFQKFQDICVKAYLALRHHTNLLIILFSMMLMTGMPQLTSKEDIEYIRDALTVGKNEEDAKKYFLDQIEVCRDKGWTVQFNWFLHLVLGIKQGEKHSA

[2] = molecular target: Mitogen-activated protein kinase kinase kinase kinase 3 (Homo sapiens) (UniProt Q8IVH8); test: Inhibition of recombinant human MAP4K3 (1 to 291 residues) at 1 uM using RRRFRPASPLRGPPK as substrate after 40 mins in presence of [gamma-33P]ATP by scintillation counting method
[3] = molecular target: Beta-adrenergic receptor kinase 1 (Homo sapiens) (UniProt P25098); test: Inhibition of recombinant full-length human GRK2 at 1 uM using casein as substrate after 40 mins in presence of [gamma-33P]ATP by scintillation counting method
[4] = molecular target: Serine/threonine-protein kinase pim-1 (Homo sapiens) (UniProt P11309); test: Inhibition of recombinant full-length human PIM1 at 1 uM using KKRNRTLTV as substrate after 40 mins in presence of [gamma-33P]ATP by scintillation counting method
[5] = molecular target: Serine/threonine-protein kinase TAO2 (Homo sapiens) (UniProt Q9UL54); test: Inhibition of recombinant human TAO2 (1 to 320 residues) at 1 uM using myelin basic protein as substrate after 40 mins in presence of [gamma-33P]ATP by scintillation counting method
[6] = molecular target: Mitogen-activated protein kinase kinase kinase 9 (Homo sapiens) (UniProt P80192); test: Inhibition of recombinant human MLK1 (134 to 414 residues) at 1 uM using casein as substrate after 40 mins in presence of [gamma-33P]ATP by scintillation counting method
[7] = molecular target: Serine/threonine-protein kinase PAK 6 (Homo sapiens) (UniProt Q9NQU5); test: Inhibition of recombinant human PAK6 (382 to end residues) at 1 uM using RRRLSFAEPG as substrate after 40 mins in presence of [gamma-33P]ATP by scintillation counting method
[8] = molecular target: Serine/threonine-protein kinase 10 (Homo sapiens) (UniProt O94804); test: Inhibition of recombinant human LOK (1 to 348 residues) at 1 uM using RLGRDKYKTLRQIRQ as substrate after 40 mins in presence of [gamma-33P]ATP by scintillation counting method
Chain of Serine/threonine-protein kinase 10 (Homo sapiens) (O94804 whole entry, looked up, the tested form may be a part): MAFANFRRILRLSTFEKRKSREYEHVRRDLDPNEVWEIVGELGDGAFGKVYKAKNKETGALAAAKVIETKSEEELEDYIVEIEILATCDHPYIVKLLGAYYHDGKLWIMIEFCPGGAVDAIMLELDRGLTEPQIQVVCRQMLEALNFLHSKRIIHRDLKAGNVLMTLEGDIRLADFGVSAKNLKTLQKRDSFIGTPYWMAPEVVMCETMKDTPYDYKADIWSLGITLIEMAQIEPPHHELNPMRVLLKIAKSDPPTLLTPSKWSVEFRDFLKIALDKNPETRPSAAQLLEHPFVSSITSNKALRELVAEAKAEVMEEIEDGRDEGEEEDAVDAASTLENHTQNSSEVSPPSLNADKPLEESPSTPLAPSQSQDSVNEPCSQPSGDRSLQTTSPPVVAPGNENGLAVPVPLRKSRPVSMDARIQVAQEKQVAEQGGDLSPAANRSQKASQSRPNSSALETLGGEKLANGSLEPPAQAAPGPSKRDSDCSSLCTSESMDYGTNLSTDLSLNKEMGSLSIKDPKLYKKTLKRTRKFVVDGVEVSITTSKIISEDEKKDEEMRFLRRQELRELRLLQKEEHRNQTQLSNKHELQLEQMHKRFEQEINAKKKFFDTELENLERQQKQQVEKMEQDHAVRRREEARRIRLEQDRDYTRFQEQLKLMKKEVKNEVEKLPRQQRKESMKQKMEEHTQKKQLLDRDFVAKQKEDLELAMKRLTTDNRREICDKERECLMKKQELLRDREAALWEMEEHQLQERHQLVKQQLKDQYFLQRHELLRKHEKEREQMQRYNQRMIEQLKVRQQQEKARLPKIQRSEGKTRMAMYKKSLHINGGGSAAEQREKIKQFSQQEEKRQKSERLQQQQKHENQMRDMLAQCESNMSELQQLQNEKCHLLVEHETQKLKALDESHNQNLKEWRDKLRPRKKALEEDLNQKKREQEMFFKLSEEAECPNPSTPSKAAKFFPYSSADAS

[9] = molecular target: Platelet-derived growth factor receptor alpha (Homo sapiens) (UniProt P16234); test: Inhibition of recombinant human PDGFRalpha (550 to end residues) at 1 uM using poly(Glu,Tyr) 4:1 as substrate after 40 mins in presence of [gamma-33P]ATP by scintillation counting method
[10] = Metabolic stability in human liver microsomes assessed as compound remaining at 1 uM in presence of NADPH as cofactor measured after 30 mins by LC-MS/MS method; type: ADME, microsome; details: read-out: Stability
[11] = molecular target: Protein kinase C theta type (Homo sapiens) (UniProt Q04759); test: Inhibition of recombinant full-length human PKCtheta at 1 uM using histone H1 as substrate after 40 mins in presence of [gamma-33P]ATP by scintillation counting method
[12] = molecular target: Focal adhesion kinase 1 (Homo sapiens) (UniProt Q05397); test: Inhibition of recombinant human FAK (411 to 686 residues) at 1 uM using EEEEYEEEEEEYYIIEEEEEEYEEEEEEYYEEEEEEKKKK as substrate after 40 mins in presence of [gamma-33P]ATP by scintillation counting method
[13] = molecular target: CDK3/Cyclin E (Homo sapiens) (UniProt P24864+Q00526); test: Inhibition of recombinant full-length human CDK3/Cyclin E at 1 uM using histone H1 as substrate after 40 mins in presence of [gamma-33P]ATP by scintillation counting method; type: protein-complex assay
[14] = molecular target: PI3K p110 beta/p85 beta (Mus musculus) (UniProt Q8BTI9+O08908); test: Inhibition of recombinant full-length mouse p110b/p85b at 1 uM using phosphatidylinositol 4,5-bisphosphate as substrate after 40 mins in presence of [gamma-33P]ATP by scintillation counting method; type: protein-complex assay
[15] = molecular target: Ephrin type-A receptor 4 (Homo sapiens) (UniProt P54764); test: Inhibition of recombinant human EPHA4 (601 to 892 residues) at 1 uM using poly(Glu,Tyr) 4:1 as substrate after 40 mins in presence of [gamma-33P]ATP by scintillation counting method
[16] = molecular target: Serine/threonine-protein kinase STK11 (Homo sapiens) (UniProt Q15831); test: Inhibition of recombinant full-length human LKB1 at 1 uM using LSNLYHQGKFLQTFCGSPLYRRR as substrate after 40 mins in presence of [gamma-33P]ATP by scintillation counting method
[17] = molecular target: Bone morphogenetic protein receptor type-2 (Homo sapiens) (UniProt Q13873); test: Inhibition of recombinant human BMPR2 (172 to 734 residues) at 1 uM using myelin basic protein as substrate after 120 mins in presence of [gamma-33P]ATP by scintillation counting method
[18] = test system: Platelet-derived growth factor receptor alpha (Homo sapiens), P16234 [D842V]; test: Inhibition of recombinant human PDGFRalpha D842V mutant (550 to end residues) at 1 uM using GGMEDIYFEFMGGKKK as substrate after 40 mins in presence of [gamma-33P]ATP by scintillation counting method
[19] = molecular target: Tyrosine-protein kinase Fes/Fps (Homo sapiens) (UniProt P07332); test: Inhibition of recombinant human FES (2 to end residues) at 1 uM using poly(Glu,Tyr) 4:1 as substrate after 40 mins in presence of [gamma-33P]ATP by scintillation counting method
Chain of Tyrosine-protein kinase Fes/Fps (Homo sapiens) (P07332 whole entry): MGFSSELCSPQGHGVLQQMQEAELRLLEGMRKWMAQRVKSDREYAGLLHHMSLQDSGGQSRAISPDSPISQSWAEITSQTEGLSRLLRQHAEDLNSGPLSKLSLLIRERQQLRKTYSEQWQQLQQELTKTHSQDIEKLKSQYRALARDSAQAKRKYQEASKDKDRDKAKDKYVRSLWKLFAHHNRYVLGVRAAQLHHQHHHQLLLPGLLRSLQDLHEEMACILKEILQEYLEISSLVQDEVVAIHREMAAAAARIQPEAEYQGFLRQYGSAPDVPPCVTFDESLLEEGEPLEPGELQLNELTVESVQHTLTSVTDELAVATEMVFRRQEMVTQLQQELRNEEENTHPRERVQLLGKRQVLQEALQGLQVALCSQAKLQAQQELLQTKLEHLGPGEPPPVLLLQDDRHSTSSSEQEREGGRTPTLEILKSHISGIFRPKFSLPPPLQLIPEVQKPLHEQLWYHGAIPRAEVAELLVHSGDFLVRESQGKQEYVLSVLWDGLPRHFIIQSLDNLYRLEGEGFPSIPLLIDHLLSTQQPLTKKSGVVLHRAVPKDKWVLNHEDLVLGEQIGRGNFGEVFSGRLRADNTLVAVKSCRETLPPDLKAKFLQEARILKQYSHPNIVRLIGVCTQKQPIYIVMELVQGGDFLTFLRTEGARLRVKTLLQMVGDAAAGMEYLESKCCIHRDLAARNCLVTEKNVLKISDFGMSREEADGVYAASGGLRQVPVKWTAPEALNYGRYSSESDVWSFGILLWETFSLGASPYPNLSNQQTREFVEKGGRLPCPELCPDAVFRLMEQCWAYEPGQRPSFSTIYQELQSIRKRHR

[20] = test system: Mitogen-activated protein kinase 14 (Homo sapiens), Q16539 [T106M]; test: Inhibition of recombinant full-length human SAPK2a T106M mutant at 1 uM using myelin basic protein as substrate after 40 mins in presence of [gamma-33P]ATP by scintillation counting method
Chain of Mitogen-activated protein kinase 14 (Homo sapiens), Q16539 [T106M] (Q16539 whole entry T106M): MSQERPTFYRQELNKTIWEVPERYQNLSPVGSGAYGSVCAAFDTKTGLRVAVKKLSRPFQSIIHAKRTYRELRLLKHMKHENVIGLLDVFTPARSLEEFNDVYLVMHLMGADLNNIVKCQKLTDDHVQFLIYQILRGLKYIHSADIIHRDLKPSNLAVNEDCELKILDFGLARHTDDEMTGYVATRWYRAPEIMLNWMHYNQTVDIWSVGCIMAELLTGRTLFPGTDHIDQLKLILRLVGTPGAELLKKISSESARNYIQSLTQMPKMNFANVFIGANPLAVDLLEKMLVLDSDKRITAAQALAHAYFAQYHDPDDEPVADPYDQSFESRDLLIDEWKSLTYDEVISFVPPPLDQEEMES

[21] = molecular target: Mitogen-activated protein kinase 13 (Homo sapiens) (UniProt O15264); test: Inhibition of recombinant full-length human SAPK4 at 1 uM using myelin basic protein as substrate after 40 mins in presence of [gamma-33P]ATP by scintillation counting method
Chain of Mitogen-activated protein kinase 13 (Homo sapiens) (O15264 whole entry): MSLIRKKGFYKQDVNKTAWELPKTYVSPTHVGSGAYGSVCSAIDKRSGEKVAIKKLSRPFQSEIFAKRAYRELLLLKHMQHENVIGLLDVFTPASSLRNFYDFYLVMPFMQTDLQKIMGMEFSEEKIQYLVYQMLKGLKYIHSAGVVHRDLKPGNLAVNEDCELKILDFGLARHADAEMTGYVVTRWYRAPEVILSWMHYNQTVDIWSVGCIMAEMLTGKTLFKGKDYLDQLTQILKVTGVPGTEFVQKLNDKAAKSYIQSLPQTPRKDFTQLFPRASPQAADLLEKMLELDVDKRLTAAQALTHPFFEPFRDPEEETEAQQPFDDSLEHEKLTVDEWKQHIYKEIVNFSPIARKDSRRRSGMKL

[22] = molecular target: Dual specificity protein kinase CLK1 (Homo sapiens) (UniProt P49759); test: Inhibition of recombinant human CLK1 (130 to end residues) at 1 uM using ERMRPRKRQGSVRRRV as substrate after 40 mins in presence of [gamma-33P]ATP by scintillation counting method
[23] = molecular target: Epidermal growth factor receptor (Homo sapiens) (UniProt P00533); test: Inhibition of recombinant human EGFR (696 to end residues) at 1 uM using poly(Glu,Tyr) 4:1 as substrate after 40 mins in presence of [gamma-33P]ATP by scintillation counting method
Chain of Epidermal growth factor receptor (Homo sapiens) (P00533 whole entry): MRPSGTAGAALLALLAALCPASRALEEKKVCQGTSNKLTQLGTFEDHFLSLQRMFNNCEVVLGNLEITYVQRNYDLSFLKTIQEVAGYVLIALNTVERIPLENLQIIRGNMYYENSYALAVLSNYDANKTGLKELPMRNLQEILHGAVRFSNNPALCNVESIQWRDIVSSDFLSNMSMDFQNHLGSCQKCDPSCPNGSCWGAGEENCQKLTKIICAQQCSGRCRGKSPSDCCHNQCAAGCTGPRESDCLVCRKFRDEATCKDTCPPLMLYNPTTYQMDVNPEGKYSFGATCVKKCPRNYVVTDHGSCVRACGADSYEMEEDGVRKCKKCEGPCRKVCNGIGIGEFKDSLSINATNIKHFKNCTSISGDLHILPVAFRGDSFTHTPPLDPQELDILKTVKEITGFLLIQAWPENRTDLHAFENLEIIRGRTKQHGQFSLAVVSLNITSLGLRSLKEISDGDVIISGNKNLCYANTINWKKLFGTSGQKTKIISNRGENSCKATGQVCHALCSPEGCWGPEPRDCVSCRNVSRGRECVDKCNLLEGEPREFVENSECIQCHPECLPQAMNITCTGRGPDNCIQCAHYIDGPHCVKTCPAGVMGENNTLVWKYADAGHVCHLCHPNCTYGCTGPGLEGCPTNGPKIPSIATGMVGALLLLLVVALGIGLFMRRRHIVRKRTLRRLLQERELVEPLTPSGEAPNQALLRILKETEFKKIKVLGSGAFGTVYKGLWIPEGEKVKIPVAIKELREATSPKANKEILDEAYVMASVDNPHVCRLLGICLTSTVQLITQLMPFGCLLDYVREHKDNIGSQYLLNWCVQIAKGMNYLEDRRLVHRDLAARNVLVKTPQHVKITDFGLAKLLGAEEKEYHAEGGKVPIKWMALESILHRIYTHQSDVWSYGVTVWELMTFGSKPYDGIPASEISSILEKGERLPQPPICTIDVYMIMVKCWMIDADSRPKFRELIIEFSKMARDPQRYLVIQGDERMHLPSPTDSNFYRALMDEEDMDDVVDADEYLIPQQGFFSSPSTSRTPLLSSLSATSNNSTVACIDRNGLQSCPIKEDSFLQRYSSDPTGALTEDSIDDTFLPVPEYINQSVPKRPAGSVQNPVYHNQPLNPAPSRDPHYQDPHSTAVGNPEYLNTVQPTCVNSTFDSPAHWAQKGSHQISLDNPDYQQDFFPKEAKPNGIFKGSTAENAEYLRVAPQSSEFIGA

[24] = molecular target: Eukaryotic translation initiation factor 2-alpha kinase 3 (Homo sapiens) (UniProt Q9NZJ5); test: Inhibition of recombinant human PEK (536 to end residues) at 1 uM using RSRSRSRSRSRSRSR as substrate after 40 mins in presence of [gamma-33P]ATP by scintillation counting method

CS(=O)(=O)c1ccc(-n2nc(-c3cnc4[nH]ccc4c3)c3c(N)ncnc32)cc1
inhibition [1]: 10% | inhibition [2]: 2% | inhibition [3]: 5% | inhibition [4]: -2% | inhibition [5]: 9% | inhibition [6]: 13% | inhibition [7]: 7% | inhibition [8]: -5% | inhibition [9]: -6% | remaining at 0.5 h, 1 µM [10]: 83% | inhibition [11]: 5% | inhibition [12]: 3% | inhibition [13]: -6% | inhibition [14]: 1% | inhibition [15]: 1% | inhibition [16]: -5% | inhibition [17]: 2% | inhibition [18]: 47% | inhibition [19]: -5% | inhibition [20]: 0% | inhibition [21]: -5% | inhibition [22]: 10% | inhibition [23]: 3% | inhibition [24]: 13%
